Assay results from patent US8993515B2, “Peptidomimetics comprising N-amino cyclic urea residues and uses thereof” (Valorisation-Recherche, Limited Partnership, priority 2012, dated 2015).
pEC50, pKd: −log10 of the molar value. Each block holds one compound with its values, some of them ahead of it. Residues, ends and D or L forms follow the SMILES beside them.

How the values were obtained:
[1] = tested on: NO production induced by TLR-2 agonist R-FSL-1 in J774 cells; test: Nitrite (NO) production induced by TLR-2 agonist R-FSL-1 in J774 cells; format: cell-based; conditions: 10^−6 M, 2 hr pre-exposure; R-FSL-1 300 ng/mL 17 hr
Method: J774 cells (ATCC passage 10 to 15) were cultured (2×10^5 cells/ml) in 24-well plates (Costar 3524 NY) in DMEM supplemented with FBS (10%).Three hours after plating, cell culture medium was replaced with 0.5 mL of the same medium containing 10^−6M of imidazolones derivatives for 2 hr pretreatment. Cells were then exposed to R-FSL1 (300 ng/ml) for 17 hr at 37° C. Cell culture media were collected and aliquots (10 μL) were mixed with 10 μL of 2,3 diaminonapthalene reagent (0.05 mg/mL in HCl 0.62M) for nitrite levels determination by fluorescence (λexc 365 nm and λem 430 nm) (Misko et al. (1993) Anal Biochem, 214, 11-16).

[2] = tested on: MAP kinase JNK phosphorylation induced by POVPC in RAW 264.7 murine macrophage cells; test: JNK assay: POVPC-induced JNK phosphorylation in RAW 264.7 macrophages; format: cell-based; conditions: for pEC50: 2 h pre-treatment 10^−9 to 10^−6 M, then 10 μg/mL POVPC 30 min, phospho-JNK/total-JNK ratio, read-out: JNK-kinase cellular assay EC50; for inhibitory activity on MAP kinase JNK phosphorylation relative to [azaTyr^4]GHRP-6, in words: POVPC-stimulated RAW 264.7 cells
Method: RAW264.7 murine macrophage cells (American Type Culture Collection, Manassas, Va.) pre-treated with N-amino-imidazolin-2-one peptide for 2 h at concentration varying from 10^−9 to 10^−6 M were stimulated with 10 μg/mL POVPC (Cayman chemical, Ann Arbor, Mich.) for 30 min at 37° C. Cells were lysed on ice and centrifuged at 12,000×g. Aliquots of the resulting supernatant (30 μg of protein) were analyzed on SDS-PAGE and electrotransferred on nitrocellulose membrane. The revelation was performed by incubating the membrane with primary antibody against phospho-JNK or total-JNK (Cell signalling, Pickering, Canada) (1:500) overnight and with secondary HRP-conjugated goat anti-rabbit IgG antibody (Jackson Immunoresearch Laboratories Inc., West Grove, Pa.) (1:10,000) for 1 h. Membrane was visualized by chemiluminescence and intensity of bands was measured with Image Quant software (Molecular Dynamics, Sunnyvale, Calif.). The ratio of phospho-JNK/total-JNK was used to determine the phosphorylation state of JNK modulated by the tested peptide.
RAW 264.7 murine macrophage cells were seeded at 2×10^6 cells/well in a 6-well plate and starved in serum-free media overnight at 37° C. Cells were first pre-treated with the N-amino-imidazolin-2one peptide mimic at concentrations ranging from 10^−9 to 10^−6 M for 2 h and then stimulated with 10 μg/mL POVPC (Cayman chemical, Ann Arbor, Mich.) for 30 min at 37° C. Medium was then removed and cell plates were immediately frozen at −80° C. Cells were then scrapped into 100 μl of RIPA (50 mM Tris-HCl pH 7.5, 150 mM NaCl, 1% Triton X™-100, 0.1% SDS, 25 mM NaF) containing 1 mM PMSF and 1 mM Na3VO4, and incubated on ice for 30 min. The soluble fractions were isolated by centrifugation at 12,000×g for 30 min. The supernatant was collected and proteins were assayed with BCA reagent. Aliquots ([…]) were analyzed on 10% SDS-PAGE and electrotransferred on nitrocellulose membrane. Membrane was blocked with 5% BSA in TBS-T and incubated overnight with primary antibody against phospho-JNK or total-JNK (1:500) (Cell signalling, Pickering, Canada) in 5% BSA TBS-T. The membranes were then washed 5 times with TBS-T and incubated with secondary HRP-conjugated goat anti-rabbit IgG antibody (1:10,000) in 5% BSA TBS-T for 1 h at room temperature. The reaction was visualized by chemiluminescence using SuperSignal™ West Dura (Thermo scientific, Rockford, Ill.) and signals analyzed with Chemilmager™ 5500 (Alpha Innotech, San Leandro, Calif.). The intensity of each band was measured by densitometry using Image Quant™ software (Molecular Dynamics, Sunnyvale, Calif.) and the phosphorylation state was determined from the intensity ratio of phospho-JNK/total-JNK. To determine IC50 of inhibition curves, intensity ratio data were plotted using Prism™ 4 software (GraphPad, La Jolla, Calif.).

[3] = molecular target: T1, recombinant soluble His-tagged CD36 (Homo sapiens, UniProt P16671); test: SPR spectroscopy binding to CD36; conditions: for pKd: SPR response for ligand 100 nM to 30 μM fitted to Langmuir isotherm; for SPR ΔλSPR (nm): SPR response on CD36 functionalized surface
T1 construct: recombinant soluble His-tagged CD36 functionalized surface
T1 sequence (P16671 30-439 limits assumed): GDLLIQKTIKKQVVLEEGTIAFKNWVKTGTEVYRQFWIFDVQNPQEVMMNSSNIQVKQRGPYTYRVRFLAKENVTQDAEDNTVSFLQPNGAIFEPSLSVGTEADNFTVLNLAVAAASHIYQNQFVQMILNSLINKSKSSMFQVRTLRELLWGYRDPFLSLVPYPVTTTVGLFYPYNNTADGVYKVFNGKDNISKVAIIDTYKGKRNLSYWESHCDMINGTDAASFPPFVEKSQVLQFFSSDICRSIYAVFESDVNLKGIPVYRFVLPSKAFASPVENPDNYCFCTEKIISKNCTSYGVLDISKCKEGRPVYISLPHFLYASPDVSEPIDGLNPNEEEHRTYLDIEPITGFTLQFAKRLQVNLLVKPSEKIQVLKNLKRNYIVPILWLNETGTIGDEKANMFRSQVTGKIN
Method: The affinity of the small peptide ligand binding to a recombinant soluble His-tagged CD36 functionalized surface was screened by SPR sensing as previously described (Bolduc, O. R.; Lambert-Lanteigne, P.; Colin, D. Y.; Zhao, S. S.; Proulx, C.; Boeglin, D.; Lubell, W. D.; Pelletier, J. N.; Féthière, J.; Ong, H.; Masson, J.-F. Analyst. 2011, 136, 3142-3148). Briefly, the SPR sensors were prepared by immobilizing the His-tagged CD36 to 3-mercaptopropionyl-leucinyl-histidinyl-aspartyl-leucinyl-histidinyl-aspartic acid (3-Mpa-LHDLHD) with Nα,Nα-bis(carboxymethyl)-L-lysine at the C-terminus, a modified peptide monolayer competent to bind His-tagged biomolecules. A calibration curve of the SPR response for ligand concentrations ranging from 100 nM to 30 μM was fitted to the Langmuir isotherm (Equation 1) to determine K (K=1/Kd) for the CD36-ligand system. ΔλSPR=(K[ligand])ΔλSPRmax(1+K[ligand])^−1 (1)

human TF-1 cells = test: IL-1β-induced thymocyte (TF-1) proliferation, CyQUANT NF dye; format: cell-based; conditions: peptide 1 μM; human IL-1β 25 ng/mL; 48 h
Method: Immune cell proliferation was assessed by DNA intercalation of CyQUANT NF® fluorescent dye (Invitrogen, Carlsbad, Calif., USA). Essentially, human TF-1 cells (CRL-2003, American Type Culture Collection) were cultured in complete RPMI 1640 (WISENT Inc., Montréal, Quebec, Canada) supplemented with human GM-CSF (2 ng/ml, PeptroTech, Rocky Hill, N.J., USA). Cells (passage 5 and at least 85% viable, as verified by trypan blue dying) were reincorporated into RPMI 1640 medium deprived of phenol red (Gibco Invitrogen®, Carlsbad, Calif., USA) and of growth factors [i.e. fetal bovine serum (FBS) and GM-CSF] for 18 h and split (5×10^3 cells in 200 μL/well) into 96-well non-adherent flat bottom culture plates (Sarstedt®, Nümbrecht, Germany). Following 15 min pre-incubation with peptide or peptidomimetic (1 μM), the cells were treated with human IL-1β (25 ng/mL, PeproTech®, Rocky Hill, N.J., USA) and re-incubated. After 48 h, the cells were centrifuged for 7 min at 300 g, reincorporated into Hank's Buffered Salt Solution (1×HBSS, 50 μL/well, Gibco Invitrogen®, Carlsbad, Calif., USA) and transferred into a 96-well polystyrene black plate (Corning Incorporated, Corning, N.Y., USA). An additional 50 μL solution made of CyQUANT NF® dye (component A, 1×) and CyQUANT NF™ delivery agent (component B, 1×) in 1×HBSS was added to the cells in each well, which were covered with aluminum foil and incubated for 45 min. Fluorescence intensity was measured using a microplate reader (Perkin Elmer Wallac Envision® 2104; Perkin Elmer®, California, USA) with excitation at 485 nm and emission detection at 530 nm (FITC 485 and FITC 531 filters, respectively). Hexaplicate experiments were repeated three times and results were analyzed by one-way analysis of variance (ANOVA) factoring for treatments, and data are presented as mean±standard error of the mean (SEM).

Compound: Cc1c(-c2ccccc2)n(NC(=O)[C@H](C)NC(=O)[C@@H](Cc2c[nH]c3ccccc23)NC(=O)[C@@H](N)Cc2cnc[nH]2)c(=O)n1C(Cc1ccccc1)C(=O)N[C@@H](CCCCN)C(N)=O (mixture of isomers) [DNDB3-01, His-D-Trp-Ala-(N-amino-4-methyl-5-phenyl-imidazolin-2-one)-DL-Phe-Lys-NH2]
effect on nitrite/NO production induced by R-FSL-1, in words [1]: comparable to that of EP80317

Compound: Cc1ccc(-c2c(C)n(C(Cc3ccccc3)C(=O)N[C@@H](CCCCN)C(N)=O)c(=O)n2NC(=O)[C@H](C)NC(=O)[C@@H](Cc2c[nH]c3ccccc23)NC(=O)[C@@H](N)Cc2cnc[nH]2)cc1 (mixture of isomers) [DNDB3-03, His-D-Trp-Ala-(N-amino-4-methyl-5-p-toluoyl-imidazol-2-one)-DL-Phe-Lys-NH2]
effect on nitrite/NO production induced by R-FSL-1, in words [1]: comparable to that of EP80317

pKd [3]: 5.31
SPR ΔλSPR (nm) [3]: 1.1 nm
Compound: Cc1cn(NC(=O)[C@H](C)NC(=O)[C@@H](Cc2c[nH]c3ccccc23)NC(=O)[C@@H](N)Cc2c[nH]cn2)c(=O)n1C(Cc1ccccc1)C(=O)N[C@@H](CCCCN)C(N)=O (stereo partly drawn) [31a, His-D-Trp-Ala-(N-amino-4-methyl-imidazolin-2-one)-D-Phe-Lys-NH2]
pEC50 [2]: 7.26
inhibitory activity on MAP kinase JNK phosphorylation relative to [azaTyr^4]GHRP-6, in words [2]: increased inhibitory activity

affinity for the CD36 receptor relative to [azaTyr^4]GHRP-6, in words ([3]; SPR): comparable affinity
SPR ΔλSPR (nm) [3]: 1.6 nm
Compound: C[C@H](NC(=O)[C@@H](Cc1c[nH]c2ccccc12)NC(=O)[C@@H](N)Cc1c[nH]cn1)C(=O)Nn1cc(Cc2ccccc2)n([C@H](Cc2ccccc2)C(=O)N[C@@H](CCCCN)C(N)=O)c1=O [31b, His-D-Trp-Ala-(N-amino-4-benzyl-imidazolin-2-one)-D-Phe-Lys-NH2]
pEC50 [2]: < 5.00
inhibitory activity on MAP kinase JNK phosphorylation relative to [azaTyr^4]GHRP-6, in words [2]: relatively lower inhibitory activity

Compound: Cc1c(-c2ccccc2)n(NC(=O)[C@H](C)NC(=O)[C@@H](Cc2c[nH]c3ccccc23)NC(=O)[C@@H](N)Cc2cnc[nH]2)c(=O)n1[C@@H](Cc1ccccc1)C(=O)N[C@@H](CCCCN)C(N)=O [DND B2-109, His-D-Trp-Ala-(N-amino-4-methyl-5-phenyl-imidazol-2-one)-L-Phe-Lys-NH2]
effect on nitrite/NO production induced by R-FSL-1, in words [1]: comparable to that of EP80317

Compound: CC(C)C[C@@H](NC(=O)[C@@H](CCC(=O)O)NC(=O)[C@@H](C(C)C)N1CC=CCN(NC(=O)[C@@H](Cc2ccc(O)cc2)NC(=O)[C@H](N)CCCNC(=N)N)C1=O)C(=O)N[C@H](C)C(N)=O [[Nad^3]-101.10, D-Arg-D-Tyr-Nad-D-Val-D-Glu-D-Leu-D-Ala-NH2] (HELM PEPTIDE1{[dR].[dY].[CC(C)[C@H](C(=O)[*:2])N1CC=CCN(N[*:1])C1=O].[dE].[dL].[dA].[am]}$$$$V2.0)
exacerbated proliferation over the level of exogenous IL-1β (human TF-1 cells): 53%

Compound: CC(C)C[C@@H](NC(=O)[C@@H](CCC(=O)O)NC(=O)[C@@H](C(C)C)N1CCCN(NC(=O)[C@@H](Cc2ccc(O)cc2)NC(=O)[C@H](N)CCCNC(=N)N)C1=O)C(=O)N[C@H](C)C(N)=O [[Nap^3]-101.10, D-Arg-D-Tyr-Nap-D-Val-D-Glu-D-Leu-D-Ala-NH2] (HELM PEPTIDE1{[dR].[dY].[CC(C)[C@H](C(=O)[*:2])N1CCCN(N[*:1])C1=O].[dE].[dL].[dA].[am]}$$$$V2.0)
diminished IL-1β-induced proliferation (human TF-1 cells): 41%

Compound: C[C@H](NC(=O)[C@@H](Cc1c[nH]c2ccccc12)NC(=O)[C@@H](N)Cc1c[nH]cn1)C(=O)NN(Cc1ccc(O)cc1)C(=O)N[C@H](Cc1ccccc1)C(=O)N[C@@H](CCCCN)C(N)=O [[azaTyr^4]GHRP-6, His-D-Trp-Ala-AzaTyr-D-Phe-Lys-NH2, reference compound] (HELM PEPTIDE1{H.[dW].A.[O=C(N(Cc1ccc(O)cc1)N[*:1])[*:2]].[dF].K.[am]}$$$$V2.0)
pEC50 [2]: 6.67
SPR ΔλSPR (nm) [3]: 1.8 nm

Compound: C[C@H](NC(=O)[C@@H](Cc1c[nH]c2ccccc12)NC(=O)[C@@H](N)Cc1cnc[nH]1)C(=O)NN(Cc1ccc(O)cc1)C(=O)N[C@H](Cc1ccccc1)C(=O)N[C@@H](CCCCN)C(N)=O [[azaTyr^4]GHRP-6, His-D-Trp-Ala-AzaTyr-D-Phe-Lys-NH2, reference compound] (HELM PEPTIDE1{H.[dW].A.[O=C(N(Cc1ccc(O)cc1)N[*:1])[*:2]].[dF].K.[am]}$$$$V2.0)
pKd [3]: 5.30

Compound: HAlC-2MeDTrp-DLys-Trp-DPhe-Lys-NH2 [EP80317, reference compound]
effect on nitrite/NO production induced by R-FSL-1, in words [1]: negatively modulated nitrite production

Compound: His-D-Trp-Ala-(N-amino-4-methyl-imidazolin-2-one)-D-Phe-Lys-NH2 [YGR 401-2]
effect on nitrite/NO production induced by R-FSL-1, in words [1]: comparable to that of EP80317

Compound: His-D-Trp-Ala-(N-amino-4-methyl-imidazolin-2-one)-L-Phe-Lys-NH2 [YGR401-1]
effect on nitrite/NO production induced by R-FSL-1, in words [1]: comparable to that of EP80317

Compound: His-azaPheAla-Trp-DPhe-Ala-NH2 [CP-1A(i), reference compound]
effect on nitrite/NO production induced by R-FSL-1, in words [1]: did not modulate NO production
